Reference: patent EP2921176A2, “PHARMACEUTICAL COMPOSITION FOR TREATMENT OF PROSTATIC HYPERPLASIA” (priority 2012, dated 2014)
Where two headings read alike, the source gives them in different places.

Columns and labels:
[1] = system: prostate gland (PG) in rats with the benign prostatic hyperplasia (BPH); assay type: in vivo; details: for Mass of PG, mg At end of experiment / Mass of PG, mg Initial / MF PG (mass factor of the PG): rats with BPH
Protocol: The effect of the new mixtures of peptides on the mass of the prostate of rats in the model of benign prostate hyperplasia caused by testosterone propionate, was studied on 98 white non-pedigree male rats (mass 220-280 g at the beginning of the experiment), and 10 white non- pedigree male rats with a mass of 22-26 g (acute toxicity was assessed in those animals in a separate series o experiments).
J. Med. Food., 2007, Vol. 10, No 4, p. 628-635; Liu H.P., Chen G.L., Liu P., Xu X.P. «Amlodipine alone or combined with terazosin improves lower urinary tract disorder in rat models of benign prostatic hyperplasia or detrusor instability: focus on detrusor overactivity". BJU Int., 2009, Vol. 104, No 11, p. 1752-1757).
(§1) The animals in those groups were injected intramuscularly (i/m) a mixture of peptides in doses of 50, 150 and 600 mcg/kg/day, alpha1-adrenergic blocker Doxazosin (Zoxon, Zentiva a.s., Czech Republic) in the dose of 1 mg/kg/day and 2nd type 5 alpha-reductase inhibitor Finasteride (Proscar, Merck Sharp & Dohme, The Netherlands) in the dose of 10 mg/kg/day in the stomach (via an intragastral sonde) for 18 days (from day 4), and also the well-known homeopathic drug Prostatine (OOO «Homeofarma», Russia) with 5 pellets into the stomach for 18 days. The rats in the control group received intramuscularly only an isotonic solution of sodium chloride (NaCl) in equivolume quantities.
Extraction of the prostatic gland (PG) for morphological (light-optical) analysis was done both before and after the reproduction of BPH (on days 22 and 23). The rats were decapitated under general anesthesia with ether, following which the prostatic gland was extracted and weighed (analytical balance «Sartogosm LV 120-A», Russia, inaccuracy-0.5 mg).

[2] = system: prostate gland of rats with BPH; experiment: Morphological and morphometric (light-optical) analysis of the prostate gland in the rat BPH model; assay type: in vivo; set-up: key to COLL (score estimate of the content of collagen in the stroma, median): 0: Absent in the field of vision; 1: Thin friable fibers; 2: Thin oriented bunches; 3: Dense interlayers; 4: Zones of fibrosis; details: for EPIT (volume fraction of the epithelium) / LUMEN (volume fraction of acinar lumens) / STROMA (volume fraction of stroma): mean ± standard error of the mean
Excerpt: The material was subjected to standard histological processing in accordance with Example 2. Sections were stained according to Van Gieson, as well as with hematoxyline and eosin. In addition to the morphological description of the preparations, a quantitative analysis of the most important morphological parameters of the PG (Table 2) to assess the dynamics of morphological changes. The prostate's functional status (fibrosis, epithelium hyperplasia, retention of the prostatic fluid in acinuses) can be assessed using the epithelium/stroma and epithelium/duct indices. Table 2. Classes of morphological analysis
The morphometric analysis was conducted using a Leica DM2500 microscope fitted with a digital photographic camera. The digital images were used to assess structural changes in PG tissues. Volume fractions of acinuses, stroma and epithelium were defined by point counting. Scoring was used to more accurately determine the quantity of collagen fibers because of their small percentage share (around 1-2%) (Table 3). Table 3. The criteria for scoring the quantity of collagen fibers
A comparison of the groups in terms of different parameters using the Kruskal-Wallis one-way analysis of variance by ranks, Dan and Wilcoxon-Mann-Whitney test data were obtained on intergroup differences at the set level of significance of p < 0,05. […]
as §1
The material was subjected to standard histological processing. For light-optical analysis, pieces of the PG were fixed with 10% neutral formalin, following which histological sections were prepared. The sections were stained according to Van Gieson, and also with hematoxyline and eosin. In addition to morphological description of the microsections, a quantitative evaluation of the most important morphological parameters of the PG for the purpose of objective assessment of the dynamics of morphological changes. A Leica DM2500 microscope with a digital photographic camera was used for morphometric analysis. The digital images were used to assess structural changes in the PG's tissues.

prostate = details: after 1 to 3 months; cited from earlier work
[3] = 1 mg/kg/day in stomach for 18 days
[4] = 10 mg/kg/day in stomach for 18 days

## COc1cc2nc(N3CCN(C(=O)C4COc5ccccc5O4)CC3)nc(N)c2cc1OC (stereo not drawn) [Doxazosin]
[1]; [3]
  Mass of PG, mg At end of experiment: 7.7e+10 ± 7e+09 pg
  Mass of PG, mg Initial: 2.38e+11 ± 1.8e+10 pg
[1]; 1 mg/kg/day in the stomach for 18 days
  MF PG (mass factor of the PG): virtually unreduced
[2]; [3]
  COLL (score estimate of the content of collagen in the stroma, median): 2
  EPIT/LUMEN (ratio of share of epithelium to share of acinar lumens): 36.62 ± 1.19
  EPIT/STR (ratio of share of epithelium to share of stroma): 75.55 ± 1.34
  morphological picture of stroma: Inflammation and edema were completely absent in the Doxazosin group, but there were zones of fibrosis
  structure (morphology) of epithelium: acinuses covered with epithelium with normal morphology alternated with acinuses with hyperplastic epithelium
  EPIT (volume fraction of the epithelium): 19.79 ± 0.84%
  LUMEN (volume fraction of acinar lumens): 54.03 ± 1.05%
  STROMA (volume fraction of stroma): 26.19 ± 0.93%

## CC(C)(C)NC(=O)[C@H]1CC[C@H]2[C@@H]3CC[C@H]4NC(=O)C=C[C@]4(C)[C@H]3CC[C@]12C [Finasteride]
[1]; 10 mg/kg/day in stomach for 18 days, p<0,05
  reduced the mass of the PG (times, compared to the control): 1.4 times
[1]; [4]
  MF PG (mass factor of the PG): 65±5 mg/100 r mass of the rat
  Mass of PG, mg At end of experiment: 6.5e+10 ± 5e+09 pg
  Mass of PG, mg Initial: 1.99e+11 ± 1.4e+10 pg
[2]; [4]
  COLL (score estimate of the content of collagen in the stroma, median): 1
  EPIT/LUMEN (ratio of share of epithelium to share of acinar lumens): 47.31 ± 1.49
  EPIT/STR (ratio of share of epithelium to share of stroma): 53.41 ± 1.55
  morphological picture of stroma: highly edemous
  structure (morphology) of epithelium: caused injury and death of epithelial cells
  EPIT (volume fraction of the epithelium): 20.06 ± 0.95%
  LUMEN (volume fraction of acinar lumens): 42.40 ± 1.17%
  STROMA (volume fraction of stroma): 37.55 ± 1.14%

## C[C@]12C=CC(=O)N[C@@H]1CC[C@@H]1[C@@H]2CC[C@]2(C)[C@@H](C(=O)Nc3cc(C(F)(F)F)ccc3C(F)(F)F)CC[C@@H]12 [Dutasteride]
prostate
  reduction of the size of the prostate: more than 20%
